Drawing on patent US20190359645A1, “2'3'-CYCLIC DINUCLEOTIDES COMPRISING CARBOCYCLIC NUCLEOTIDE” (Institute of Organic Chemistry and Biochemistry ASCR, V.V.I., priority 2018, published 2019), this text covers EC50 for 14 compounds.

The target of the assay is WT STING (Homo sapiens, UniProt Q86WV6, H232R). Description: Digitonin assay using 293T wtSTING-FL reporter cells. Conditions: 293T wtSTING-FL cells, digitonin buffer 30 min, then 5 h, ISRE firefly luciferase reporter. It counts as cell-based. The arrangement: host or cells: 293T (ATCC CRL-3216), stably transfected; also carries the 4xISRE firefly luciferase reporter. The text has this:
Two complementary oligonucleotides of the sequence […] […] […] […] (SEQ ID NO: 1) and […] […] (SEQ ID NO:2) containing four interferon-sensitive response elements (ISRE) were synthesized by Sigma Aldrich (Czech Republic, Prague). The oligonucleotides were mixed in equal molar amounts, hybridized, and cleaved by restriction endonucleases HindIII (cat. #. R^0104S, NEB, Ipswich, USA) and BglII (cat. # R^0144S, NEB, Ipswich, USA). Ultimately, they were ligated into plasmid pGL4.27 (cat. # E6651, Promega, Madison, USA) linearized with the same enzymes. As a result, the sequence with four ISRE sites was placed upstream of the minimum promoter of firefly luciferase reporter gene.
293T cells (cat. # CRL-3216, ATCC, Manassas, USA) were seeded a day before transfection at density 125,000 cells per cm^2 onto poly-D-lysine (cat. # P6407, Sigma Aldrich, Czech Republic) coated six well plates in antibiotic free DMEM with high glucose (cat. # D5796, Sigma Aldrich, Czech Republic) supplemented with 10% heat inactivated FBS (cat. # S1520, Biowest, Riverside, USA). On the day of transfection, 2.5 μg of the plasmid pUNO1-hSTING-WT (cat. # punol-hstingwt, InvivoGen, San Diego, USA,) encoding human wild type STING (WT STING) was diluted in 125 μL OptiMEM medium (cat. #31985062, ThermoFisher, Waltham, USA) and mixed with 125 μL of the same medium containing 12.5 μL of Lipofectamine 2000 (cat. #11668019, ThermoFisher, Waltham, USA). After 5 minutes incubation at room temperature (RT), 250 μL of the mixture was added dropwise to the cells in one well. Cells were incubated 36 hours at 37° C. with 5% CO2, and then detached with 0.05% Trypsin and 0.22 g/L EDTA (both cat. # L0941, Biowest, Riverside, USA).
Transfected cells were seeded onto poly-D-lysine coated six well plates at density 50,000 cells per 1 cm^2 in DMEM medium with high glucose containing 10% heat inactivated FBS, […] blasticidin (cat. # ant-bl-05, InvivoGen, San Diego, USA), 0.06 mg/ml Penicillin G and 0.1 mg/ml Streptomycin Sulfate (both cat. #. L0018, Biowest, Riverside, USA). The medium was replenished every 3-4 days until visible colonies of cells resistant to blasticidin were formed.
Blasticidin resistant cells stably expressing WT STING were further transfected with […] plasmid following the same procedure as described above. The transfected cells were selected for the resistance to 300 μg/mL hygromycin (cat. #. 10687010, ThermoFisher, Waltham, USA) in DMEM with high glucose containing 10% heat inactivated FBS, […] blasticidin, 0.06 mg/ml Penicillin G and 0.1 mg/ml Streptomycin Sulfate. Homogeneous culture of stably double transfected cells was prepared by limiting dilution of cells in 96 well plates and wells with cells were selected that originated from a single cell. These cells were expanded, and expression of WT STING was confirmed by western blot using monoclonal mouse anti STING antibodies (cat. #. MAB7169, 1:1000 dilution; […] cat. #. HAF007, 1:2000 dilution, both from R&D Systems, Minneapolis, USA), and by induction of firefly luciferase expression in the presence of 50 μM STING agonist 2′3′ cGAMP (cat. # tlrl-nacga23, InvivoGen, San Diego, USA). Genomic DNA from the transfected cells was amplified with primers pUNO1_Seq_F ([…]) (SEQ ID NO:3) and pUNO1_Seq_R ([…]) (SEQ ID NO:4) that were complementary to pUNO1 plasmid and the presence of WT STING gene in the transfected cells was confirmed by DNA sequencing.
293T wtSTING-FL cells were seeded at density of 250,000 cells per cm^2 onto 96 well poly-D-lysine coated plates in 100 μl DMEM with high glucose supplemented with 10% heat inactivated FBS. […]
Background: Reporter assays use an easily measured gene product as a stand-in for the process of interest.

Where [1] appears, read: read-out: Digitonin assay EC50 WT STING.

Where two headings read alike, the source gives them in different places.

Sequence of WT STING (Q86WV6 whole entry H232R): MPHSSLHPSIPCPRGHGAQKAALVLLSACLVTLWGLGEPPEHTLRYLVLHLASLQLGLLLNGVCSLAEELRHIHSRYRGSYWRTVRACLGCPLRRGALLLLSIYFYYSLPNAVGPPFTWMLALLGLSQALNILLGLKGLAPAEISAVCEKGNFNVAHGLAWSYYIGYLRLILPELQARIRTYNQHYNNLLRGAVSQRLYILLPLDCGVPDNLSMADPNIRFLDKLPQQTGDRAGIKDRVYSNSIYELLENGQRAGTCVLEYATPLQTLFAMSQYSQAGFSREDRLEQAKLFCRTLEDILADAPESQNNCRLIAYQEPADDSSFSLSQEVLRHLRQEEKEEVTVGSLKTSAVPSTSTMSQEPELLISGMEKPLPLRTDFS

Consider `Nc1ncnc2c1ncn2[C@@H]1O[C@@H]2COP(=O)(S)O[C@@H]3[C@H](F)[C@@H](COP(=O)(S)O[C@H]2[C@H]1F)C[C@H]3n1cnc2c(=O)[nH]cnc21` (single isomer, unassigned) [Compound 128b], for which the EC50 under setting [1] came to 400 nM.
`Nc1ncnc2c1ncn2[C@@H]1O[C@@H]2COP(=O)(S)O[C@@H]3[C@H](F)[C@@H](COP(=O)(S)O[C@H]2[C@H]1F)C[C@H]3n1cnc2c(=O)[nH]cnc21` (single isomer, unassigned) [Compound 128c]: the EC50 under setting [1] stood at 60 nM.
`Nc1nc2c(ncn2[C@@H]2C[C@@H]3COP(=O)(O)OC4C(O)[C@H](n5cnc6c(N)ncnc65)O[C@@H]4COP(O)(=S)OC2C3O)c(=O)[nH]1` (stereo partly drawn) [Compound 101, 2-amino-9-[(6R,8R,15R,17R)-8-(6-amino-9H-purin-9-yl)-3,9,12,18-tetrahydroxy-12-oxo-3-sulfanylidene-2,4,7,11,13-pentaoxa-3λ^5,12λ^5-diphosphatricyclo[13.2.1.0^6,10]octadecan-17-yl]-6,9-dihydro-1H-purin-6-one] registered a half-maximal effective concentration (EC50) (Digitonin assay EC50 WT STING) of 10 nM.
On to `Nc1nc2c(ncn2[C@@H]2C[C@@H]3COP(=O)(O)OC4C(O)[C@H](n5cnc6c(N)ncnc65)O[C@@H]4COP(=O)(O)OC2C3O)c(=O)[nH]1` (stereo partly drawn) [Compound 102, (6R,8R,15R,17R)-17-(2-amino-6-oxo-6,9-dihydro-1H-purin-9-yl)-8-(6-amino-9H-purin-9-yl)-3,9,12,18-tetrahydroxy-2,4,7,11,13-pentaoxa-3λ^5,12λ^5-diphosphatricyclo[13.2.1.0^6,10]octadecane-3,12-dione], for which, under setting [1], the EC50 was determined as 100 nM.
With `Nc1nc2c(ncn2[C@@H]2C[C@@H]3COP(=O)(O)OC4C(O)[C@H](n5cnc6c(N)nc(F)nc65)O[C@@H]4COP(=O)(O)OC2C3O)c(=O)[nH]1` (stereo partly drawn) [Compound 103, (6R,8R,15R,17R)-8-(6-amino-2-fluoro-9H-purin-9-yl)-17-(2-amino-6-oxo-6,9-dihydro-1H-purin-9-yl)-3,9,12,18-tetrahydroxy-2,4,7,11,13-pentaoxa-3λ^5,12λ^5-diphosphatricyclo[13.2.1.0^6,10]octadecane-3,12-dione], the concentration for a half-maximal effect (EC50) under setting [1] turned out to be 1500 nM.
For `Nc1nc2c(ncn2[C@@H]2C[C@@H]3COP(=O)(O)OC4C(O)[C@H](n5cnc6c(=O)[nH]cnc65)O[C@@H]4COP(=O)(O)OC2C3O)c(=O)[nH]1` (stereo partly drawn) [Compound 104, (6R,8R,15R,17R)-17-(2-amino-6-oxo-6,9-dihydro-1H-purin-9-yl)-3,9,12,18-tetrahydroxy-8-(6-oxo-6,9-dihydro-1H-purin-9-yl)-2,4,7,11,13-pentaoxa-3λ^5,12λ^5-diphosphatricyclo[13.2.1.0^6,10]octadecane-3,12-dione], the half-maximal effective concentration (EC50) under setting [1] was 100 nM.
For the compound `Nc1nc(N)c2ncn([C@@H]3O[C@@H]4COP(=O)(O)OC5C(O)[C@@H](COP(=O)(O)OC4C3O)C[C@H]5n3cnc4c(=O)[nH]c(N)nc43)c2n1` (stereo partly drawn) [Compound 105, (6R,8R,15R,17R)-17-(2-amino-6-oxo-6,9-dihydro-1H-purin-9-yl)-8-(2,6-diamino-9H-purin-9-yl)-3,9,12,18-tetrahydroxy-2,4,7,11,13-pentaoxa-3λ^5,12λ^5-diphosphatricyclo[13.2.1.0^6,10]octadecane-3,12-dione], the EC50 under setting [1] stood at 500 nM.
Still for that read-out and setting: for `Nc1ncc2ncn([C@@H]3O[C@@H]4COP(=O)(O)OC5C(O)[C@@H](COP(=O)(O)OC4C3O)C[C@H]5n3cnc4c(=O)[nH]c(N)nc43)c2n1` (stereo partly drawn) [Compound 106, (6R,8R,15R,17R)-17-(2-amino-6-oxo-6,9-dihydro-1H-purin-9-yl)-8-(2-amino-9H-purin-9-yl)-3,9,12,18-tetrahydroxy-2,4,7,11,13-pentaoxa-3λ^5,12λ^5-diphosphatricyclo[13.2.1.0^6,10]octadecane-3,12-dione] the value was 200 nM; for `Nc1nc2c(ncn2[C@@H]2C[C@@H]3COP(=O)(O)OC4C(O)[C@H](n5cnc6c(S)ncnc65)O[C@@H]4COP(=O)(O)OC2C3O)c(=O)[nH]1` (stereo partly drawn) [Compound 107, (6R,8R,15R,17R)-17-(2-amino-6-oxo-6,9-dihydro-1H-purin-9-yl)-3,9,12,18-tetrahydroxy-8-(6-sulfanyl-9H-purin-9-yl)-2,4,7,11,13-pentaoxa-3λ^5,12λ^5-diphosphatricyclo[13.2.1.0^6,10]octadecane-3,12-dione], 6400 nM; for `CNc1ncnc2c1ncn2[C@@H]1O[C@@H]2COP(=O)(O)OC3C(O)[C@@H](COP(=O)(O)OC2C1O)C[C@H]3n1cnc2c(=O)[nH]c(N)nc21` (stereo partly drawn) [Compound 108, (6R,8R,15R,17R)-17-(2-amino-6-oxo-6,9-dihydro-1H-purin-9-yl)-3,9,12,18-tetrahydroxy-8-[6-(methylamino)-9H-purin-9-yl]-2,4,7,11,13-pentaoxa-3λ^5,12λ^5-diphosphatricyclo[13.2.1.0^6,10]octadecane-3,12-dione], 170 nM.
Consider `Nc1nc2c(ncn2[C@@H]2C[C@@H]3COP(=O)(O)OC4C(N)[C@H](n5cnc6c(N)ncnc65)O[C@@H]4COP(=O)(O)OC2C3O)c(=O)[nH]1` (stereo partly drawn) [Compound 109, (6R,8R,15R,17R)-9-amino-17-(2-amino-6-oxo-6,9-dihydro-1H-purin-9-yl)-8-(6-amino-9H-purin-9-yl)-3,12,18-trihydroxy-2,4,7,11,13-pentaoxa-3λ^5,12λ^5-diphosphatricyclo[13.2.1.0^6,10]octadecane-3,12-dione], for which the concentration for a half-maximal effect (EC50) under setting [1] was found to be 130 nM.
With `CSc1ncnc2c1ncn2[C@@H]1O[C@@H]2COP(=O)(O)OC3C(O)[C@@H](COP(=O)(O)OC2C1O)C[C@H]3n1cnc2c(=O)[nH]c(N)nc21` (stereo partly drawn) [Compound 110, (6R,8R,15R,17R)-17-(2-amino-6-oxo-6,9-dihydro-1H-purin-9-yl)-3,9,12,18-tetrahydroxy-8-[6-(methylsulfanyl)-9H-purin-9-yl]-2,4,7,11,13-pentaoxa-3λ^5,12λ^5-diphosphatricyclo[13.2.1.0^6,10]octadecane-3,12-dione], the concentration for a half-maximal effect (EC50) under setting [1] came out at 230 nM.
Turning to `Nc1nc2c(ncn2[C@@H]2C[C@@H]3COP(=O)(O)OC4C(F)[C@H](n5cnc6c(N)nc(F)nc65)O[C@@H]4COP(=O)(O)OC2C3O)c(=O)[nH]1` (stereo partly drawn) [Compound 111, (6R,8R,15R,17R)-8-(6-amino-2-fluoro-9H-purin-9-yl)-17-(2-amino-6-oxo-6,9-dihydro-1H-purin-9-yl)-9-fluoro-3,12,18-trihydroxy-2,4,7,11,13-pentaoxa-3λ^5,12λ^5-diphosphatricyclo[13.2.1.0^6,10]octadecane-3,12-dione], under setting [1], the EC50 stood at 30 nM.
The same measure, in the same setting: for `CSc1nc(N)nc2c1ncn2[C@@H]1O[C@@H]2COP(=O)(O)OC3C(O)[C@@H](COP(=O)(O)OC2C1O)C[C@H]3n1cnc2c(=O)[nH]c(N)nc21` (stereo partly drawn) [Compound 112, (6R,8R,15R,17R)-8-[2-amino-6-(methylsulfanyl)-9H-purin-9-yl]-17-(2-amino-6-oxo-6,9-dihydro-1H-purin-9-yl)-3,9,12,18-tetrahydroxy-2,4,7,11,13-pentaoxa-3λ^5,12λ^5-diphosphatricyclo[13.2.1.0^6,10]octadecane-3,12-dione] the value was 15100 nM.

The term EC50 denotes the concentration needed to bring the measured effect to its halfway point.
